Reference: patent US11254668B2, “Pyrazolo[1,5-A]pyrazin-4-yl and related derivatives” (Pfizer Inc., priority 2017, dated 2022)

Key:
Format in all cases: biochemical
Conditions in all cases: JAK Caliper enzyme assay
JAK1 = JAK1 (Homo sapiens (Human), UniProt P23458); assay: JAK Caliper Enzyme Assay at 1 mM ATP, JAK1
How it was run: (§1)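 IC50 (nM) derived from percent conversion of fluorescently labelled peptide, measured by Caliper LabChip mobility-shift separation after EDTA stop. Each JAK family kinase domain (human, recombinant) run at 1 mM ATP and room temperature, conditions set to 20-30% product; DMSO wells define uninhibited baseline.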

JAK2 = JAK2 (Homo sapiens (Human), UniProt O60674); assay: JAK Caliper Enzyme Assay at 1 mM ATP, JAK2
How it was run: (§2)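 Mobility-shift microfluidic read-out: substrate and phosphopeptide peaks separated, % conversion = product/(product+substrate). Reaction used recombinant human kinase domain, synthetic peptide, 1 mM ATP, RT incubation to 20–30% turnover, quenched with EDTA. Percent effect versus DMSO and positive controls, plotted against concentration.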

TYK2 = TYK2 (Homo sapiens (Human), UniProt P29597); assay: JAK Caliper Enzyme Assay at 1 mM ATP, TYK2
How it was run: as §2

JAK3 = JAK3 (Homo sapiens (Human), UniProt P52333); assay: JAK Caliper Enzyme Assay at 1 mM ATP, JAK3
How it was run: as §1

Sequence of TYK2 (P29597 897-1176): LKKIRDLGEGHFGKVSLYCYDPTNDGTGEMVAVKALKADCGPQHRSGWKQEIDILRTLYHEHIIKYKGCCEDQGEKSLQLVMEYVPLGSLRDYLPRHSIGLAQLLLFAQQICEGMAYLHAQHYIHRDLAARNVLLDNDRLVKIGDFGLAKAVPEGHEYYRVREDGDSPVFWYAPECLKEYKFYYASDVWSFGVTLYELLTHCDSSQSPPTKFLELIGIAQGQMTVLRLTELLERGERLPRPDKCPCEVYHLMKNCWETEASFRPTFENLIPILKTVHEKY
Sequence of JAK2 (O60674 849-1124): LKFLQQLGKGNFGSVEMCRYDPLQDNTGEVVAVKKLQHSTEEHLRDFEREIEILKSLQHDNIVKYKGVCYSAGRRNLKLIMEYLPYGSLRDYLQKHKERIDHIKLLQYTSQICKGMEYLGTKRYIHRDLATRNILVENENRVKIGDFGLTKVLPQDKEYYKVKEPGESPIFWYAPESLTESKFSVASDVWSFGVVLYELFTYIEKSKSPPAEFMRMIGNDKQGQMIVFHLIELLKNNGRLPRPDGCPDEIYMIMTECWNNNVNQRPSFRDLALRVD
Sequence of JAK1 (P23458 875-1153): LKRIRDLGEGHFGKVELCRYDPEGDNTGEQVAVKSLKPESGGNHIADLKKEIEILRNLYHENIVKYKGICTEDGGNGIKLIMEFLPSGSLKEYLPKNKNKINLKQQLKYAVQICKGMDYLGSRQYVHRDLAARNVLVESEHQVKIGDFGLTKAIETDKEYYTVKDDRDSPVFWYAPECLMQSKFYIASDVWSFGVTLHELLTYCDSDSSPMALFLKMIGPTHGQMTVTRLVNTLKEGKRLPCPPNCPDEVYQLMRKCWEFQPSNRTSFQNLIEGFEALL
Sequence of JAK3 (P52333 822-1111): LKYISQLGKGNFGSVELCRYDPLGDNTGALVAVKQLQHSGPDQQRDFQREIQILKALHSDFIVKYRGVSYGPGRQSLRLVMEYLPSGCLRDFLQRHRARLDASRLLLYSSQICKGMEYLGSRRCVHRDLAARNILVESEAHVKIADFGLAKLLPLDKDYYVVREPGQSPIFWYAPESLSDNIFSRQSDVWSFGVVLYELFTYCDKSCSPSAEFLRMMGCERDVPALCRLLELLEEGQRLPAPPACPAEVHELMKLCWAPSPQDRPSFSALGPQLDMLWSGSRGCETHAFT

Row | SMILES | IC50 (JAK1) [nM] | IC50 (JAK2) [nM] | IC50 (TYK2) [nM] | IC50 (JAK3) [nM]
1 | CS(=O)(=O)N1CC(CC#N)(n2ncc(-c3cc(-c4cccc(CN)c4)cc4ncccc34)n2)C1 [Example 427, [3-(4-{7-[3-(aminomethyl)phenyl]quinolin-5-yl}-2H-1,2,3-triazol-2-yl)-1-(methylsulfonyl)azetidin-3-yl]acetonitrile] | > 10000 | 3150 | 709 | > 10000
2 | CS(=O)(=O)N1CC(CC#N)(n2ncc(-c3cc(-c4ccc(CN)cc4)cc4ncccc34)n2)C1 [Example 428, [3-(4-{7-[4-(aminomethyl)phenyl]quinolin-5-yl}-2H-1,2,3-triazol-2-yl)-1-(methylsulfonyl)azetidin-3-yl]acetonitrile] | 9320 | 924 | 128 | > 10000
3 | CS(=O)(=O)N1CC(CC#N)(n2ncc(-c3cc(-c4cccc(CO)c4)cc4ncccc34)n2)C1 [Example 429, [3-(4-{7-[3-(hydroxymethyl)phenyl]quinolin-5-yl}-2H-1,2,3-triazol-2-yl)-1-(methylsulfonyl)azetidin-3-yl]acetonitrile] | 4000 | 1120 | 112 | > 10000
4 | CS(=O)(=O)N1CC(CC#N)(n2ncc(-c3cc(-c4cccc(C(N)=O)c4)cc4ncccc34)n2)C1 [Example 430, 3-(5-{2-[3-(cyanomethyl)-1-(methylsulfonyl)azetidin-3-yl]-2H-1,2,3-triazol-4-yl}quinolin-7-yl)benzamide] | 3140 | 909 | 93 | > 10000
5 | N#CC[C@]1(n2ncc(-c3cc(-c4ccc(C(N)=O)cc4)cc4ncccc34)n2)C[C@H](C#N)C1 [Example 433, 4-(5-{2-[cis-3-cyano-1-(cyanomethyl)cyclobutyl]-2H-1,2,3-triazol-4-yl}quinolin-7-yl)benzamide] | 352 | 116 | 20 | 6700
6 | N#CCC1(n2ncc(-c3cc(-c4ccc(C(N)=O)cc4)cc4ncccc34)n2)CC(C#N)C1 (stereo not drawn) [Example 434, 4-(5-{2-[trans-3-cyano-1-(cyanomethyl)cyclobutyl]-2H-1,2,3-triazol-4-yl}quinolin-7-yl)benzamide] | 2520 | 748 | 99 | > 10000
7 | N#CC[C@]1(n2ncc(-c3cc(-c4ccc(C(=O)O)cc4)cc4ncccc34)n2)C[C@H](C#N)C1 [Example 435, 4-(5-{2-[cis-3-cyano-1-(cyanomethyl)cyclobutyl]-2H-1,2,3-triazol-4-yl}quinolin-7-yl)benzoic acid] | 208 | 179 | 17 | > 10000
8 | N#CCC1(n2ncc(-c3cc(-c4ccc(C(=O)O)cc4)cc4ncccc34)n2)CC(C#N)C1 (stereo not drawn) [Example 436, 4-(5-{2-[trans-3-cyano-1-(cyanomethyl)cyclobutyl]-2H-1,2,3-triazol-4-yl}quinolin-7-yl)benzoic acid] | 1490 | 1130 | 75 | > 10000
9 | CS(=O)(=O)N1CC(CC#N)(n2ncc(-c3cc(-c4ccccc4O)cc4ncccc34)n2)C1 [Example 437, [3-{4-[7-(2-hydroxyphenyl)quinolin-5-yl]-2H-1,2,3-triazol-2-yl}-1-(methylsulfonyl)azetidin-3-yl]acetonitrile] | > 10000 | > 10000 | 1210 | > 10000
10 | CS(=O)(=O)N1CC(CC#N)(n2ncc(-c3cc(-c4cccc(O)c4)cc4ncccc34)n2)C1 [Example 438, [3-{4-[7-(3-hydroxyphenyl)quinolin-5-yl]-2H-1,2,3-triazol-2-yl}-1-(methylsulfonyl)azetidin-3-yl]acetonitrile] | 5630 | 1960 | 107 | > 10000
11 | CS(=O)(=O)N1CC(CC#N)(n2ncc(-c3cc(-c4ccc(O)cc4)cc4ncccc34)n2)C1 [Example 439, [3-{4-[7-(4-hydroxyphenyl)quinolin-5-yl]-2H-1,2,3-triazol-2-yl}-1-(methylsulfonyl)azetidin-3-yl]acetonitrile] | 1210 | 609 | 30 | > 10000
12 | N#CC[C@]1(n2ncc(-c3cc(-c4ccc(OCCN)cc4)cc4ncccc34)n2)C[C@H](C#N)C1 [Example 440, trans-3-(4-{7-[4-(2-aminoethoxy)phenyl]quinolin-5-yl}-2H-1,2,3-triazol-2-yl)-3-(cyanomethyl)cyclobutanecarbonitrile] | 6430 | 805 | 139 | > 10000
13 | CS(=O)(=O)N1CC(CC#N)(n2ncc(-c3cc(-c4ccc(F)cc4O)cc4ncccc34)n2)C1 [Example 441, [3-{4-[7-(4-fluoro-2-hydroxyphenyl)quinolin-5-yl]-2H-1,2,3-triazol-2-yl}-1-(methylsulfonyl)azetidin-3-yl]acetonitrile] | > 10000 | > 10000 | 1100 | > 10000
14 | CS(=O)(=O)N1CC(CC#N)(n2ncc(-c3cc(-c4cc(F)ccc4O)cc4ncccc34)n2)C1 [Example 442] | > 10000 | > 10000 | 7540 | > 10000
15 | CS(=O)(=O)N1CC(CC#N)(n2ncc(-c3cc(-c4cc(O)cc(F)c4)cc4ncccc34)n2)C1 [Example 443] | > 10000 | 6460 | 631 | > 10000
16 | CS(=O)(=O)N1CC(CC#N)(n2ncc(-c3cc(-c4ccc(O)c(F)c4)cc4ncccc34)n2)C1 [Example 444] | 1240 | 1180 | 77 | > 10000
17 | CS(=O)(=O)N1CC(CC#N)(n2ncc(-c3cc(-c4cccc(CO)c4F)cc4ncccc34)n2)C1 [Example 445, [3-(4-{7-[2-fluoro-3-(hydroxymethyl)phenyl]quinolin-5-yl}-2H-1,2,3-triazol-2-yl)-1-(methylsulfonyl)azetidin-3-yl]acetonitrile] | > 10000 | 5610 | 330 | > 10000
18 | CS(=O)(=O)N1CC(CC#N)(n2ncc(-c3cc(-c4ccc(F)c(CO)c4)cc4ncccc34)n2)C1 [Example 446, [3-(4-{7-[4-fluoro-3-(hydroxymethyl)phenyl]quinolin-5-yl}-2H-1,2,3-triazol-2-yl)-1-(methylsulfonyl)azetidin-3-yl]acetonitrile] | 4730 | 964 | 101 | > 10000
19 | N#CC[C@]1(n2ncc(-c3cc(-c4ccc(-c5nnn[nH]5)cc4)cc4ncccc34)n2)C[C@@H](C#N)C1 [Example 447, cis-3-(cyanomethyl)-3-(4-{7-[4-(1H-tetrazol-5-yl)phenyl]quinolin-5-yl}-2H-1,2,3-triazol-2-yl)cyclobutanecarbonitrile] | 180 | 160 | 17 | 9400
20 | CS(=O)(=O)N1CC(CC#N)(n2ncc(-c3cc(-c4ccc5c(c4)C(=O)NC5)cc4ncccc34)n2)C1 [Example 448, [1-(methylsulfonyl)-3-{4-[7-(3-oxo-2,3-dihydro-1H-isoindol-5-yl)quinolin-5-yl]-2H-1,2,3-triazol-2-yl}azetidin-3-yl]acetonitrile] | > 10000 | 2680 | 257 | > 10000
21 | N#CC[C@]1(n2ncc(-c3cc(-c4cccc5c4NC(=O)C5)cc4ncccc34)n2)C[C@@H](C#N)C1 [Example 449, cis-3-(cyanomethyl)-3-{4-[7-(2-oxo-2,3-dihydro-1H-indol-7-yl)quinolin-5-yl]-2H-1,2,3-triazol-2-yl}cyclobutanecarbonitrile] | > 10000 | 6500 | 368 | > 10000
22 | N#CCC1(n2ncc(-c3cc(-c4cccc5c4NC(=O)C5)cc4ncccc34)n2)CC(C#N)C1 (stereo not drawn) [Example 450, trans-3-(cyanomethyl)-3-{4-[7-(2-oxo-2,3-dihydro-1H-indol-7-yl)quinolin-5-yl]-2H-1,2,3-triazol-2-yl}cyclobutanecarbonitrile] | > 10000 | > 10000 | 1420 | > 10000
23 | CS(=O)(=O)N1CC(CC#N)(n2cnc(-c3cc(-c4ccc(=O)[nH]c4)cc4ncccc34)n2)C1 [Example 451, [1-(methylsulfonyl)-3-{3-[7-(6-oxo-1,6-dihydropyridin-3-yl)quinolin-5-yl]-1H-1,2,4-triazol-1-yl}azetidin-3-yl]acetonitrile] | > 10000 | 7160 | 283 | > 10000
24 | CS(=O)(=O)N1CC(CC#N)(n2cnc(-c3cc(-c4ccn[nH]4)cc4ncccc34)n2)C1 [Example 452, [1-(methylsulfonyl)-3-{3-[7-(1H-pyrazol-5-yl)quinolin-5-yl]-1H-1,2,4-triazol-1-yl}azetidin-3-yl]acetonitrile] | 7190 | 6810 | 322 | > 10000
25 | CS(=O)(=O)N1CC(CC#N)(n2cnc(-c3cc(-c4cn[nH]c4)cc4ncccc34)n2)C1 [Example 453, [1-(methylsulfonyl)-3-{3-[7-(1H-pyrazol-4-yl)quinolin-5-yl]-1H-1,2,4-triazol-1-yl}azetidin-3-yl]acetonitrile] | 8300 | 3180 | 259 | > 10000
26 | N#CC[C@]1(n2cc(-c3cc(-c4cc[nH]n4)cc4nccn34)cn2)C[C@@H](C#N)C1 [Example 454, cis-3-(cyanomethyl)-3-{4-[7-(1H-pyrazol-3-yl)imidazo[1,2-a]pyridin-5-yl]-1H-pyrazol-1-yl}cyclobutanecarbonitrile] | 912 | 468 | 36 | > 10000
